Experimental data reported in patent publication US7381749B2, “Sulfonamides as inhibitors of histone deacetylase for the treatment of disease” (Kalypsys, Inc., priority 2004, dated 2008).

Experiments:
HDAC = assay: In vitro HDAC-inhibition assay (Fluor de Lys fluorescent substrate); type: biochemical; details: HDAC enzyme source (e.g. partially purified nuclear extract or immunopurified HDAC complexes)
Procedure: In vitro HDAC-Inhibition Assay:
This assay measures a compound's ability to inhibit acetyl-lysine deacetylation in vitro and was used as both a primary screening method as well as for IC50 determinations of confirmed inhibitors. The assay is performed in vitro using an HDAC enzyme source (e.g. partially purified nuclear extract or immunopurified HDAC complexes) and a proprietary fluorescent substrate/developer system (HDAC Quantizyme Fluor de Lys Fluorescent Activity Assay, BIOMOL). The assay is run in 1,536-well Greiner white-bottom plates using the following volumes and order of addition: • Step 1: Enzyme (2.5 ul) source added to plate (from refrigerated container) • Step 2: Compounds (50 nl) added with pin transfer device • Step 3: Fluor de Lys (2.5 ul) substrate added, incubate at RT, 30 minutes • Step 4: Developer (5 ul) solution is added (containing TSA), to stop reaction • Step 5: Plate Reader—data collection • The deacetylated fluorophore is excited with 360 nm light and the emitted light (460 nm) is detected on an automated fluorometric plate reader (Aquest, Molecular Devices).

HDAC in cells = assay: Cellular IC50 (cellular assays: histone hyperacetylation cytoblot / differential cytotoxicity); type: cell-based; details: transformed cell lines (e.g. HeLa, A549, MCF-7); cell line not specified
Procedure: These two secondary assays evaluates a compound's ability to inhibit HDAC in cells by measuring cellular histone acetylation levels. The cytoblot facilitates quantitative EC50 information for cellular HDAC inhibition. Transformed cell lines (e.g. HeLa, A549, MCF-7) are cultured under standard media and culture conditions prior to plating.
Cells (approx. 2,500/well) are allowed to adhere 10-24 hours to wells of a 384-well Greiner PS assay plate in media containing 1-5% serum. Cells are treated with appropriate compound and specific concentrations for 0 to 24 hours. Cells are washed once with PBS (60 ul) and then fixed (95% ethanol, 5% acetic acid or 2% PFA) for 1 minute at RT (30 ul). Cells are blocked with 1% BSA for 1 hour and washed and stained with antibody (e.g. anti-Acetylated Histone H3, Upstate Biotechnology), followed by washing and incubation with an appropriate secondary antibody conjugated to HRP or fluorophore. For luminescence assays, signal is generated using Luminol substrate (Santa Cruz Biotechnology) and detected using an Aquest plate reader (Molecular Devices).
Differential Cytotoxicity Assay:
HDAC inhibitors display differential cytotoxicity toward certain transformed cell lines. Cells are cultured according to standard ATCC recommended conditions that are appropriate to each cell type. Compounds were tested for their ability to kill different cell types (normal and transformed) using the ATPlite luminescence ATP detection assay system (Perkin Elmer). Assays are run in either 384-well or 1536-well Greiner PS plates. Cells (30 ul or 5 ul, respectively) are dispensed using either multichannel pipette for 384-well plates, or proprietary Kalypsys bulk liquid dispenser for 1536-well plates. Compounds added using proprietary pin-transfer device (500 nL or 5 nL) and incubated 5 to 30 hours prior to analysis. Luminescence is measured using Aquest plate reader (Molecular Devices).

| SMILES | IC50 (HDAC) [nM] | IC50 (HDAC in cells) [nM] |
| --- | --- | --- |
| CC(=O)SCC(=O)c1ccc(NS(=O)(=O)c2ccc(OC(F)(F)F)cc2)cc1F [Example 47, Thioacetic acid S-{2-[2-fluoro-4-(4-trifluoromethoxy-benzenesulfonylamino)-phenyl]-2-oxo-ethyl}ester] | < 1000 | < 1000 |
| CC(=O)SCC(=O)c1ccc(NS(=O)(=O)c2ccc(Cl)cc2Cl)cc1 [Example 28] | < 1000 | < 1000 |
| CC(=O)SCC(=O)c1ccc(NS(=O)(=O)c2ccc(OC(F)(F)F)cc2)cc1Cl [Example 14, Thioacetic acid S-{2-[2-chloro-4-(4-trifluoromethoxy-benzenesulfonylamino)-phenyl]-2-oxo-ethyl}ester] | < 1000 | < 50000 |
| CC(=O)SCC(=O)c1ccc2c(ccn2S(=O)(=O)c2ccccc2)c1 [Example 49, Thioacetic acid S-[2-(1-benzenesulfonyl-1H-indol-5-yl)-2-oxo-ethyl]ester] | < 1000 | < 1000 |

The next lines start with results.

| IC50 (HDAC) [nM] | SMILES | IC50 (HDAC in cells) [nM] |
| --- | --- | --- |
| < 1000 | COc1ccc(S(=O)(=O)Nc2ccc(C(=O)CSC(C)=O)cc2)cc1OC [Example 27] | < 1000 |
| < 1000 | CC(=O)SCC(=O)c1ccc(NS(=O)(=O)c2ccc(C)cc2)cc1 [Example 16, Thioacetic acid S-{12-oxo-2-[4-(toluene-4-sulfonylamino)-phenyl]-ethyl}ester] | < 1000 |
| < 1000 | CC(=O)SCC(=O)c1ccc(NS(=O)(=O)c2ccc(F)cc2C)cc1 [Example 18, Thioacetic acid S-{2-[4-(4-fluoro-2-methyl-benzenesulfonylamino)-phenyl]-2-oxo-ethyl}ester] | < 1000 |
| < 1000 | CC(=O)SCC(=O)c1ccc(NS(=O)(=O)c2cccc(Cl)c2)cc1 [Example 37] | < 1000 |
